Assay results from ChEMBL document CHEMBL1201862, “PubChem BioAssay data set” (2004).
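Protocol summary: plate cells (96-well), add compound at 5 concentrations, incubate 48 h, interpolate endpoints linearly. Here, GI50 denotes the concentration required for 50% inhibition of growth.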 The source made the active and inactive calls. Cut-off read from the data, not from the text of the source: active = GI50 up to about 1.1 µM and inactive = higher.

Experiments:
Experiment in all cases: NCI-60 cell line screen, 48 h
786-0 = test system: 786-0
CAKI-1 = test system: CAKI-1
COLO 205 = test system: COLO 205
DMS-114 = test system: DMS-114
EKVX = test system: EKVX
HCT-116 = test system: HCT-116
HL-60 = test system: HL-60
IGROV-1 = test system: IGROV-1
LOX IMVI = test system: LOX IMVI
Malme-3M = test system: Malme-3M
NCI-H23 = test system: NCI-H23
OVCAR-4 = test system: OVCAR-4
OVCAR-5 = test system: OVCAR-5
OVCAR-8 = test system: OVCAR-8
SK-OV-3 = test system: SK-OV-3
SW-620 = test system: SW-620
UACC-62 = test system: UACC-62
NCI-H226 = test system: NCI-H226

Compound	GI50 (786-0)	GI50 (CAKI-1)	GI50 (COLO 205)	GI50 (DMS-114)	GI50 (EKVX)	GI50 (HCT-116)	GI50 (HL-60)	GI50 (IGROV-1)	GI50 (LOX IMVI)	GI50 (Malme-3M)	GI50 (NCI-H23)	GI50 (OVCAR-4)	GI50 (OVCAR-5)	GI50 (OVCAR-8)	GI50 (SK-OV-3)	GI50 (SW-620)	GI50 (UACC-62)	GI50 (NCI-H226)
C=C1C(=O)C23[C@H](O)C1CC[C@H]2[C@]12COC3(O)[C@@H](O)[C@@H]1C(C)(C)CC[C@@H]2O	11 µM (inactive)	1.98 µM (inactive)	0.452 µM (active)	7.38 µM (inactive)	19.7 µM (inactive)	7.28 µM (inactive)	4.27 µM (inactive)	21.4 µM (inactive)	14.2 µM (inactive)	2.49 µM (inactive)	13.5 µM (inactive)	18 µM (inactive)	18.5 µM (inactive)	13.4 µM (inactive)	17.1 µM (inactive)	1.84 µM (inactive)	10.9 µM (inactive)	–
CC(=O)OCCOCNC(=S)N/N=C(\C)c1cccs1	> 100 µM (inactive)	–	> 100 µM (inactive)	> 100 µM (inactive)	> 100 µM (inactive)	> 100 µM (inactive)	> 100 µM (inactive)	> 100 µM (inactive)	> 100 µM (inactive)	> 100 µM (inactive)	> 100 µM (inactive)	> 100 µM (inactive)	> 100 µM (inactive)	> 100 µM (inactive)	> 100 µM (inactive)	> 100 µM (inactive)	> 100 µM (inactive)	> 100 µM (inactive)
N#Cc1c(-c2ccccc2)cc(-c2cccs2)c(C#N)c1N	> 100 µM (inactive)	> 100 µM (inactive)	> 10 µM (inactive)	> 10 µM (inactive)	> 100 µM (inactive)	> 100 µM (inactive)	> 100 µM (inactive)	> 10 µM (inactive)	> 100 µM (inactive)	> 100 µM (inactive)	–	> 100 µM (inactive)	–	> 100 µM (inactive)	> 10 µM (inactive)	> 100 µM (inactive)	> 10 µM (inactive)	–
NC(=O)/C=C/C(=O)O	> 5000 µM (inactive)	–	> 5000 µM (inactive)	> 5000 µM (inactive)	–	> 5000 µM (inactive)	> 5000 µM (inactive)	> 5000 µM (inactive)	> 5000 µM (inactive)	> 5000 µM (inactive)	> 5000 µM (inactive)	> 5000 µM (inactive)	> 5000 µM (inactive)	> 5000 µM (inactive)	> 5000 µM (inactive)	> 5000 µM (inactive)	> 5000 µM (inactive)	> 5000 µM (inactive)
COc1cc2cccc(NC(=O)c3cc(OC)c(OC)c(OC)c3Br)c2cc1OC	29.2 µM (inactive)	17.6 µM (inactive)	12.9 µM (inactive)	3.12 µM (inactive)	21.1 µM (inactive)	11.9 µM (inactive)	–	14.4 µM (inactive)	–	18.5 µM (inactive)	8 µM (inactive)	9.02 µM (inactive)	10 µM (inactive)	12.9 µM (inactive)	22.5 µM (inactive)	24.8 µM (inactive)	10.3 µM (inactive)	–
CC(=O)CN(Cc1cc(C)c2c(c1)c1ccccc1n2Cc1ccccc1)S(=O)(=O)c1ccc(C)cc1	> 100 µM (inactive)	> 100 µM (inactive)	> 100 µM (inactive)	> 100 µM (inactive)	> 100 µM (inactive)	> 100 µM (inactive)	> 100 µM (inactive)	> 100 µM (inactive)	–	> 100 µM (inactive)	> 100 µM (inactive)	> 100 µM (inactive)	–	> 100 µM (inactive)	> 100 µM (inactive)	> 100 µM (inactive)	> 100 µM (inactive)	> 100 µM (inactive)
O=C(CNC(=O)OCc1ccccc1)Oc1ccccc1	> 100 µM (inactive)	–	> 100 µM (inactive)	> 100 µM (inactive)	> 100 µM (inactive)	> 100 µM (inactive)	> 100 µM (inactive)	> 100 µM (inactive)	> 100 µM (inactive)	> 100 µM (inactive)	> 100 µM (inactive)	> 100 µM (inactive)	> 100 µM (inactive)	> 100 µM (inactive)	> 100 µM (inactive)	–	> 100 µM (inactive)	> 100 µM (inactive)
COC(=O)c1c2c(cc3c1CC1(Cc4cc5c(c(C(C)=O)c4C1)CCC5)C3)CCC2 (centres undefined)	42.4 µM (inactive)	34.2 µM (inactive)	> 100 µM (inactive)	61.5 µM (inactive)	–	28.6 µM (inactive)	11.8 µM (inactive)	72.8 µM (inactive)	50.1 µM (inactive)	16.4 µM (inactive)	64.1 µM (inactive)	36.7 µM (inactive)	> 100 µM (inactive)	54.5 µM (inactive)	–	> 100 µM (inactive)	44.9 µM (inactive)	–
COC(=O)CCC(=O)N1C/C(=C\c2ccccc2)C(=O)/C(=C/c2ccccc2)C1	2.03 µM (inactive)	1.75 µM (inactive)	2.06 µM (inactive)	1.73 µM (inactive)	3.94 µM (inactive)	0.41 µM (active)	–	1.79 µM (inactive)	0.447 µM (active)	2.34 µM (inactive)	2.14 µM (inactive)	2.03 µM (inactive)	2.7 µM (inactive)	3.1 µM (inactive)	4.16 µM (inactive)	0.191 µM (active)	2.11 µM (inactive)	3.41 µM (inactive)
Cn1nc(-c2ccccc2NC(=O)C(F)(F)F)c(=O)n(C)c1=S	61.9 µM (inactive)	33.6 µM (inactive)	> 10 µM (inactive)	14 µM (inactive)	31.3 µM (inactive)	38.1 µM (inactive)	–	63.2 µM (inactive)	29.9 µM (inactive)	37.8 µM (inactive)	29.2 µM (inactive)	19.9 µM (inactive)	69.3 µM (inactive)	23.9 µM (inactive)	> 100 µM (inactive)	34.5 µM (inactive)	> 10 µM (inactive)	38.5 µM (inactive)
Cc1ccccc1NC(=O)C(=O)CC(=O)c1c(C)[n+]([O-])c2ccccc2[n+]1[O-]	> 100 µM (inactive)	> 100 µM (inactive)	> 100 µM (inactive)	> 100 µM (inactive)	> 100 µM (inactive)	> 100 µM (inactive)	–	> 100 µM (inactive)	–	> 100 µM (inactive)	> 100 µM (inactive)	76.9 µM (inactive)	> 100 µM (inactive)	> 100 µM (inactive)	> 100 µM (inactive)	> 100 µM (inactive)	> 100 µM (inactive)	> 100 µM (inactive)
CC(=O)Nc1ccc(/C=C(\NC(=O)c2ccccc2)c2nc3ccc4c(c3[nH]2)C(=O)c2ccccc2C4=O)cc1	35.6 µM (inactive)	5.02 µM (inactive)	57.8 µM (inactive)	17.9 µM (inactive)	24.3 µM (inactive)	12.2 µM (inactive)	–	7.13 µM (inactive)	15.1 µM (inactive)	> 100 µM (inactive)	21.6 µM (inactive)	56.8 µM (inactive)	> 100 µM (inactive)	22.1 µM (inactive)	72.4 µM (inactive)	18.9 µM (inactive)	17.9 µM (inactive)	> 100 µM (inactive)
